Where a name gives a salt, the structure may show the parent alone. Read-outs that look alike come from different tables or passages of the source.
Experiments:
[1] = test system: lentiviral pseudoparticles harboring the SARS-CoV-1 spike; test: microbe, parasite or virus in culture; conditions: Severe acute respiratory syndrome coronavirus, Caco-2, read-out: anti-viral IC50 (±SEM), SARS-CoV-1 pp
[2] = test system: lentiviral pseudoparticles harboring the MERS-CoV spike; test: microbe, parasite or virus in culture; conditions: Middle East respiratory syndrome-related coronavirus

CN(C)C(=O)COC(=O)Cc1ccc(OC(=O)c2ccc(NC(=N)N)cc2)cc1 [Camostat mesylate]
IC50 [1]: 71.1 ± 8 nM
IC50 ([2]; Caco-2, 48 h, read-out: IC50, MERS-CoV spike pseudoparticles): 50 nM
IC50 ([2]; Caco-2, read-out: anti-viral IC50 (±SEM), MERS-CoV pp): 49.9 ± 19 nM
